Measured values as given in US20240398771A1, “TREATMENT OF SCLERODERMA AND RAYNAUD'S SYNDROME” (Aisa Pharma, Inc., priority 2023, published 2024).

What was measured:
[1] = tested on: participants with SSc-RP; test: SHAQ Alternative Disability Index; type: in vivo, human
Excerpt: The standard, validated, patient reported outcome measures tool for SSc patients, the Scleroderma Health Assessment Questionnaire (SHAQ), will be used to assess the participant qualify of life. Details are attached in the Appendix. The participant quality of life will be scored, and a disability index calculated for each questionnaire completed by the patient at Screening and each in-clinic visit. The absolute change in participant quality of life from baseline to the end of each dosing period will be calculated similar to frequency data as before.
The SHAQ is used to calculate a Disability Index to assess the participant qualify of life. The eight categories assessed by the Disability Index are 1) dressing and grooming, 2) arising, 3) eating, 4) walking, 5) hygiene, 6) reach, 7) grip, and 8) common daily activities. For each of these categories, patients report the amount of difficulty they have in performing two or three specific activities.
There are four possible responses for the Disability Index questions: • Without any difficulty=0 • With some difficulty=1 • With much difficulty=2 • Unable to do=3 • The highest score reported by the patient for any component question of the eight categories determines the score for that category. • If a component question is left blank or the response is too ambiguous to assign a score, then the score for that category is determined by the remaining completed question(s). • If all component questions are blank or if more than one answer is given, then follow up with the respondent is required. • If the respondent's mark is between the response columns, then move it to the closest one. If it's directly between the two, move it to the higher one.
The scoring variables and scoring rules permit the computation of two disability indices, the Standard Disability Index and the Alternative Disability Index.
The aid and device variables are not used to calculate the alternative disability index; it is calculated by adding the scores for each of the categories and dividing by the number of categories answered. This gives a score in the 0 to 3 range.

[2] = tested on: participants with SSc-RP; test: Frequency of weekly RP attacks, all attacks (patient diary; primary endpoint); type: in vivo, human; details: for Weekly RP Attacks (All Attacks), Max / Weekly RP Attacks (All Attacks), Min / Weekly RP Attacks (All Attacks), Q1 / Weekly RP Attacks (All Attacks), Q3: last 7 days of dosing period
Description: Part A—Double-blind, Placebo-controlled, Parallel-group, Dose selection, will assess the safety and efficacy of two doses of cilnidipine (10 mg and 20 mg), alone and in combination with tadalafil. A total of 36 participants will be randomized to one of six pre-specified treatment arms. See Example 3 for data obtained in this phase of the study thus far, on 11 participants.
Please refer to FIG. 1 for treatment arms in Part A of the study. Dosing lasted or will last for 12 (±2) days in which participants self-administered or will self-administer daily doses of assigned treatment in the morning. Each participant took or will take one capsule and one tablet to blind the active therapy being received.
The relevant metrics measured by this tool daily are: • Study medication • SSc-RP symptoms (Reporting an attack including duration of attack) • Severity of the attack considering all symptoms of the attack e.g. tingling, numbness, pain, color changes (VAS 0-10 cm scale) • Participant's location at the time of the attack (inside home/outside home) • Selecting symptoms experienced during the attack (tingling, numbness, pain, color changes, other) • Pain rating during the attack (11-point Likert scale) • The RCS based on how much difficulty participants had with Raynaud's today, how many attacks the participant had, and how long they lasted. Participants will also be asked to consider how much pain, numbness, or other symptoms the Raynaud's caused in fingers (including painful sores), and how much the Raynaud's alone affected the use of hands today (VAS 0-10 cm scale).
Percent change from baseline evaluation for frequency of weekly RP attacks were or will be used as the primary efficacy variable. The sponsor-developed participant-informed diary will be used to record data. Frequency of weekly RP attacks is defined as the total number of RP attacks divided by the number of days with available diary data within the last 7 days of each dosing period then multiplied by 7. Total number of RP attacks during the last 7 days of screening period divided by the number of days with available data then multiplied by 7 will be used as baseline for the analysis of all periods.
Percentage change={(weekly RP attacks for the last 7 days of each dosing period−Baseline weekly RP attacks)/Baseline weekly RP attacks}*100%.
Absolute change=weekly RP attacks for the last 7 days of each dosing period−Baseline weekly RP attacks
Percent change from baseline evaluation for frequency of weekly RP attacks was and will be the primary efficacy endpoint. Frequency of weekly RP attacks is defined as the total number of RP attacks divided by the number of days with available diary data within the last 7 days of each dosing period then multiplied by 7. Total number of RP attacks during the last 7 days of screening period divided by the number of days with available data then multiplied by 7 will be used as baseline for the analysis of all periods.
The following data was actually obtained in accordance with the protocol and plan delineated in Examples 1 and 2. The accompanying data involved 11 patients out of the planned 76 patient study. The study was done in patients with scleroderma (systemic sclerosis) who had relatively frequent Raynaud symptoms as they needed to average at least one attack per day during a screening period of up to two weeks. In this first phase of this double-blind placebo-controlled, prospective randomized study, patients were treated in parallel and after meeting study criteria were randomized to receive either placebo, cilnidipine 10 mg daily, cilnidipine 20 mg daily, tadalafil 5 mg daily, cilnidipine 10 mg plus 5 mg of tadalafil, or cilnidipine 20 mg plus 5 mg of tadalafil.
Results: Patients in the study were administered the Scleroderma Health Assessment Questionnaire (SHAQ) at the time of study entry and during clinic visits following the treatment period. […]

[3] = oral dosing; cited from earlier work
[4] = tested on: participants with SSc-RP; test: SHAQ Visual Analog Scale - Raynaud's; type: in vivo, human; parameters: Visual Analog Scale-Raynaud's, Baseline, Mean / Visual Analog Scale-Raynaud's, Baseline, Median / Visual Analog Scale-Raynaud's, In Clinic Visit (Day 12), Mean / Visual Analog Scale-Raynaud's, In Clinic Visit (Day 12), Median: scale not given here; details: Modified ITT, Part A
Excerpt: The SHAQ includes a Raynaud's VAS, which will be reported at screening and each in-clinic visit. The absolute change in Raynaud-VAS, assessed by the participants response to the SHAQ question ‘In the past 7 days, how much have your Raynaud's interfered with your daily activities?’ at baseline and the end of each dosing period will be calculated similar to frequency data as before. […]

[5] = Tadalafil 5 mg, Modified ITT, Part A
[6] = Table A-5, ITT Part A, last 7 days of dosing vs last 7 days of screening
[7] = Table A-5, ITT Part A, listed as Cilnidipine 10 mg
[8] = Table A-5, ITT Part A, listed as Cilnidipine 20 mg
[9] = Table A-5, ITT Part A, listed as Pooled Cilnidipine
[10] = Table A-5, ITT Part A, last 7 days of dosing vs last 7 days of screening, listed as Cilnidipine 10 mg
[11] = Table A-5, ITT Part A, last 7 days of dosing vs last 7 days of screening, listed as Cilnidipine 20 mg

CN1CC(=O)N2[C@H](c3ccc4c(c3)OCO4)c3[nH]c4ccccc4c3C[C@@H]2C1=O [Tadalafil]
Alternative disability index, Baseline, Mean [1, 5]: 0.688
Alternative disability index, Change from Baseline, Mean [1, 5]: −0.071
Alternative disability index, Change from Baseline, Median [1, 5]: −0.063
Alternative disability index, In Clinic Visit (Day 12), Mean [1, 5]: 0.616
Alternative disability index, In Clinic Visit (Day 12), Median [1, 5]: 0.482
Alternative disability index, Percent Change from Baseline, Mean [1, 5]: 21.25%
Alternative disability index, Percent Change from Baseline, Median [1, 5]: −7.69%
Weekly RP Attacks (All Attacks), Max ([2]; Table A-5, ITT Part A): 19.0
Weekly RP Attacks (All Attacks), Min ([2]; Table A-5, ITT Part A): 7.0,
Weekly RP Attacks (All Attacks), Q1 ([2]; Table A-5, ITT Part A): 7.00,
Weekly RP Attacks (All Attacks), Q3 ([2]; Table A-5, ITT Part A): 19.00
Weekly RP Attacks (All Attacks) Change from Baseline, Max [2, 6]: 6.0
Weekly RP Attacks (All Attacks) Change from Baseline, Min [2, 6]: 0.0,
Weekly RP Attacks (All Attacks) Change from Baseline, Q1 [2, 6]: 0.00,
Weekly RP Attacks (All Attacks) Change from Baseline, Q3 [2, 6]: 6.00
Weekly RP Attacks (All Attacks) Percent Change from Baseline, Min [2, 6]: 0.0, %
Weekly RP Attacks (All Attacks) Percent Change from Baseline, Q1 [2, 6]: 0.00, %
time to achieve maximal plasma concentrations (Tmax) [3]: 2 h
Visual Analog Scale-Raynaud's, Baseline, Median ([4]; Tadalafil 5 mg): 0.500
Visual Analog Scale-Raynaud's, Change from Baseline, Median ([4]; Tadalafil 5 mg): −0.150
Visual Analog Scale-Raynaud's, In Clinic Visit (Day 12), Mean ([4]; Tadalafil 5 mg): 1.500
Visual Analog Scale-Raynaud's, In Clinic Visit (Day 12), Median ([4]; Tadalafil 5 mg): 0.400
Visual Analog Scale-Raynaud's, Percent Change from Baseline, Mean ([4]; Tadalafil 5 mg): −20.78%
Visual Analog Scale-Raynaud's, Percent Change from Baseline, Median ([4]; Tadalafil 5 mg): −37.35%

COCCOC(=O)C1=C(C)NC(C)=C(C(=O)OC/C=C/c2ccccc2)C1c1cccc([N+](=O)[O-])c1 (stereo not shown) [Cilnidipine, 1,4-dihydro-2,6-dimethyl,4-(3-nitrophenyl)-3,5-pyridinedicarboxylic acid 2-methoxyethyl (2 E)-3-phenyl-2-propenyl ester]
Alternative disability index, Baseline, Mean ([1]; Cilnidipine 10 mg, Modified ITT, Part A): 0.500
Alternative disability index, Baseline, Median ([1]; Cilnidipine 20 mg, Modified ITT, Part A): 0.250
patient-reported SSc disease alternative disability compared to placebo ([1]; Example 4, SHAQ, mITT Part A): may reduce
Efficacy Seen: overall response ([2]; 20 mg dose group): shows best overall
effect on Raynaud's endpoints (DSMB review) ([2]; Example 4, Part A, both doses (10 and 20 mg)): effective at reducing Raynaud's endpoints
Weekly RP Attacks (All Attacks) Percent Change from Baseline, Median ([2]; Pooled Cilnidipine 20 mg and Cilnidipine 20 mg + Tadalafil 5 mg, excluding outliers, baseline RCS subgroup not named, upper half of table, ITT Part A): −45.00%
Weekly RP Attacks (All Attacks), Median ([2]; Pooled Cilnidipine, excluding outliers, baseline RCS subgroup not named, upper half of table, ITT Part A): 11.00
Weekly RP Attacks (All Attacks), Max [2, 7]: 23.0
Weekly RP Attacks (All Attacks), Min [2, 7]: 23.0,
Weekly RP Attacks (All Attacks), Q1 [2, 7]: 23.00,
Weekly RP Attacks (All Attacks), Q3 [2, 7]: 23.00
Weekly RP Attacks (All Attacks), Max [2, 8]: 11.0
Weekly RP Attacks (All Attacks), Min [2, 8]: 5.0,
Weekly RP Attacks (All Attacks), Q1 [2, 8]: 5.00,
Weekly RP Attacks (All Attacks), Q3 [2, 8]: 11.00
Weekly RP Attacks (All Attacks), Max [2, 9]: 23.0
Weekly RP Attacks (All Attacks), Min [2, 9]: 5.0,
Weekly RP Attacks (All Attacks), Q1 [2, 9]: 5.00,
Weekly RP Attacks (All Attacks), Q3 [2, 9]: 23.00
Weekly RP Attacks (All Attacks) Change from Baseline, Min [2, 6]: −9.0,
Weekly RP Attacks (All Attacks) Change from Baseline, Q1 [2, 6]: −9.00,
Weekly RP Attacks (All Attacks) Change from Baseline, Max [2, 10]: −9.0
Weekly RP Attacks (All Attacks) Change from Baseline, Q3 [2, 10]: −9.00
Weekly RP Attacks (All Attacks) Change from Baseline, Max [2, 11]: −4.3
Weekly RP Attacks (All Attacks) Percent Change from Baseline, Max [2, 11]: −45.0%
Weekly RP Attacks (All Attacks) Percent Change from Baseline, Q3 [2, 11]: −45.00%
Weekly RP Attacks (All Attacks) Change from Baseline, Max ([2]; Table A-5, ITT Part A, last 7 days of dosing vs last 7 days of screening, listed as Pooled Cilnidipine): −4.3
time to achieve maximal plasma concentrations (Tmax) [3]: about 2 hours
Visual Analog Scale-Raynaud's, Baseline, Mean ([4]; Cilnidipine 10 mg): 1.600
Visual Analog Scale-Raynaud's, Baseline, Median ([4]; Cilnidipine 10 mg): 1.000
Visual Analog Scale-Raynaud's, Change from Baseline, Median ([4]; Cilnidipine 10 mg): 0.350
Visual Analog Scale-Raynaud's, In Clinic Visit (Day 12), Median ([4]; Cilnidipine 10 mg): 1.700
Visual Analog Scale-Raynaud's, Baseline, Mean ([4]; Cilnidipine 20 mg): 2.300
Visual Analog Scale-Raynaud's, Baseline, Median ([4]; Cilnidipine 20 mg): 2.500
Visual Analog Scale-Raynaud's, Change from Baseline, Median ([4]; Cilnidipine 20 mg): −1.100
Visual Analog Scale-Raynaud's, In Clinic Visit (Day 12), Median ([4]; Cilnidipine 20 mg): 1.100
Visual Analog Scale-Raynaud's, Percent Change from Baseline, Median ([4]; Cilnidipine 20 mg): −44.00%
